In US10000484B2, “Inhibitors of the renal outer medullary potassim channel” (MERCK SHARP & DOHME CORP., priority 2013, dated 2018):

Each compound was assayed against T1, hROMK (hKir1.1) (Homo sapiens, UniProt P48048) (assay: Thallium Flux Assay (ROMK channel functional thallium flux assay, FLIPR-Tetra)). Settings: HEK293 cells stably expressing hROMK; 30 min incubation with compound.
T1 construct: expressed in transfected cells
T1 sequence (P48048 1-391): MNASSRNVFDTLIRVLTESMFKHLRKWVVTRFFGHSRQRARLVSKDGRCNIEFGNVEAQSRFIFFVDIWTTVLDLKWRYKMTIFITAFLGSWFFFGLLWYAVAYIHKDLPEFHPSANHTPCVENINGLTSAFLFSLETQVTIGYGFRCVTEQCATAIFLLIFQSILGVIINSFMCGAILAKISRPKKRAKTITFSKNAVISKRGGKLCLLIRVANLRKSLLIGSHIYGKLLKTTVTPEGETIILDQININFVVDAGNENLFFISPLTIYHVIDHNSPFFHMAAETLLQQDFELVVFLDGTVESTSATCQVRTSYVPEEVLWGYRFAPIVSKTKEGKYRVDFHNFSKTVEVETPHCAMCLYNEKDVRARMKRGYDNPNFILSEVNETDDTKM
Format: cell-based
Protocol: The following Thallium Flux Assay was performed on each of the final product compounds in the Examples. When the final product of an Example was an HCl salt, the salt was run in the Assay.
HEK293 cells stably expressing hROMK (hKir1.1) were grown at 37° C. in a 10% CO2 humidified incubator in complete growth media: Dulbecco's Modified Eagle Medium supplemented with non-essential amino acids, Penicillin/Streptomycin/Glutamine, G418 and FBS. At >80% confluency, aspirate the media from the flask and rinse with 10 mL Calcium/Magnesium-free PBS. Add 5 mL of 1× trypsin (prepared in Ca/Mg Free PBS) to T-225 flask and return flask to 37° C./CO2 incubator for 2-3 minutes. To dislodge the cell, gently bang the side of the flask with your hand. Triturate the cells completely and then transfer the cells to 25 mL complete media. Centrifuge at 1,500 rpm for 6 min followed by resuspension in complete growth media and determine cell concentration. For typical re-seeding, 4E6 cells/T-225 flask will attain >80% confluency in 4 days. Under ideal growth conditions and appropriate tissue culture practices, this cell line is stable for 40-45 passages.
FluxOR Kit Components (Invitrogen F10017)
• FluxOR™ Reagent (Component A) • FluxOR™ Assay Buffer (Component B)—10× Concentrate • PowerLoad™ Concentrate (Component C)—100× Concentrate • Probenecid (Component D)—Lyophilized sample is kept at −20° C. Water soluble, 100× after solubilization in 1 mL water. Store at 4° C. • FluxOR™ Chloride-free Buffer (Component E)—5× Concentrate • Potassium sulfate (K2SO4) Concentrate (Component F)—125 mM in water. Store at 4° C. • Thallium sulfate (Tl2SO4) Concentrate (Component G)—50 mM in water. Store at 4° C. • DMSO (dimethyl sulfoxide, Component H)—1 mL (100%) Reagent Preparation: FluxOR Working Solutions • 1000× FluxOR™ Reagent: Reconstitute a vial of component A in 100 μl DMSO; Mix well; Store 10 μl aliquots at −20° C. • 1× FluxOR™ Assay Buffer: Dilute Component B 10-fold with water; Adjust pH to 7.4 with Hepes/NaOH; Filter and store at 4° C. • Probenecid/Assay Buffer: 100 mL of 1× FluxOR™ Assay Buffer; 1 mL of reconstituted component D; Store at 4° C. • Loading Buffer (per microplate): 10 μl 1000× FluxOR™ Reagent; 100 μl component C; 10 mL Probenecid/Assay Buffer • Compound Buffer (per microplate): 20 mL Probenecid/Assay Buffer; 0.3 mM ouabain (10 mM ouabain in water can be stored in amber bottle/aluminum foil at room temperature); Test compound • 1× FluxOR™ Chloride-Free Buffer: Prepare 1× working solution in water. Can be stored at room temperature • Stimulant Buffer (prepared at 5× final concentration in 1× FluxOR™ Chloride-Free Buffer): 7.5 mM Thallium sulfate and 0.75 mM Potassium sulfate (to give a final assay concentration of 3 mM Thallium/0.3 mM Potassium). Store at 4° C. when not in use. Assay Protocol—
The ROMK channel functional thallium flux assay is performed in 384 wells, using the FLIPR-Tetra instrument. HEK-hKir1.1 cells are seeded in Poly-D-Lysine microplates and kept in a 37° C.-10% CO2 incubator overnight. On the day of the experiment, the growth media is replaced with the FluxOR™ reagent loading buffer and incubated, protected from light, at ambient temperature (23-25° C.) for 90 min. The loading buffer is replaced with assay buffer±test compound followed by 30 min incubation at ambient temperature, where the Thallium/Potassium stimulant is added to the microplate.
1. Seed HEK-hKir1.1 cells (50 μl at 20,000 cells/well) in 384-well PDL coated Microplates
2. Allow cells to adhere overnight in humidified 37° C./10% CO2 incubator
3. Completely remove cell growth media from microplate and replace with 25 μl loading buffer
4. Incubate Microplate at room temperature, protected form light, for 90 min
5. Remove loading buffer and replace with 25 μl 1× Assay Buffer±test compound.
6. Incubate microplate at room temperature, protected from light, for 30 min
7. At FLIPR-Tetra 384: Add stimulant (Thallium/Potassium) solution to microplate and monitor fluorescence. […]

SMILES | IC50 [nM]
Cc1cc(C#N)ccc1-c1ncc2c(n1)CCN(CCc1ccc3c(c1C)COC3=O)C2 [Example 1, 3-methyl-4-(6-(2-(4-methyl-1-oxo-1,3-dihydroisobenzofuran-5-yl)ethyl)-5,6,7,8-tetrahydropyrido[4,3-d]pyrimidin-2-yl)benzonitrile] | 477
N#Cc1ccc(-n2cc3c(n2)CCN(CCc2ccc4c(c2)COC4=O)C3)cc1 [Example 5, 4-{5-[2-(1-oxo-1,3-dihydro-2-benzofuran-5-yl)ethyl]-4,5,6,7-tetrahydro-2H-pyrazolo[4,3-c]pyridin-2-yl}benzonitrile] | 43.8
COc1cc(-c2ncc3c(n2)CCN(CCc2ccc4c(c2C)COC4=O)C3)ccc1C#N [Example 11, 2-methoxy-4-{6-[2-(4-methyl-1-oxo-1,3-dihydro-2-benzofuran-5-yl)ethyl]-5,6,7,8-tetrahydropyrido[4,3-d]pyrimidin-2-yl}benzonitrile] | 83.8
Cc1c(CCN2CCn3c(-c4ccc5c(c4)COC5=O)cnc3C2)ccc2c1COC2=O [Example 12, 4-methyl-5-{2-[3-(1-oxo-1,3-dihydro-2-benzofuran-5-yl)-5,6-dihydroimidazo[1,2-a]pyrazin-7(8H)-yl]ethyl}-2-benzofuran-1(3H)-one] | 124
Cc1c(CCN2CCn3cc(-c4ccc5c(c4)COC5=O)nc3C2)ccc2c1COC2=O [Example 13, 4-methyl-5-{2-[2-(1-oxo-1,3-dihydro-2-benzofuran-5-yl)-5,6-dihydroimidazo[1,2-a]pyrazin-7(8H)-yl]ethyl}-2-benzofuran-1(3H)-one] | 134
Cc1c(CCN2CCn3cc(-c4ccc5c(c4)CCOC5=O)nc3C2)ccc2c1COC2=O [Example 17, 6-{7-[2-(4-methyl-1-oxo-1,3-dihydro-2-benzofuran-5-yl)ethyl]-5,6,7,8-tetrahydroimidazo[1,2-a]pyrazin-2-yl}-3,4-dihydro-1H-isochromen-1-one] | 654
Cc1c(CCN2CCc3nc(-c4ccc5c(c4)COC5=O)oc3C2)ccc2c1COC2=O [Example 18, 4-methyl-5-{2-[2-(1-oxo-1,3-dihydro-2-benzofuran-5-yl)-6,7-dihydro[1,3]oxazolo[5,4-c]pyridin-5(4H)-yl]ethyl}-2-benzofuran-1(3H)-one] | 74.7
C[C@H]1Cc2cc(CCN3CCn4cc(-c5ccc6c(c5)COC6=O)nc4C3)ccc2C(=O)O1 [Example 19, (3S)-3-methyl-6-{2-[2-(1-oxo-1,3-dihydro-2-benzofuran-5-yl)-5,6-dihydroimidazo[1,2-a]pyrazin-7(8H)-yl]ethyl}-3,4-dihydro-1H-isochromen-1-one] | 198
Cc1c(CCN2CCc3nc(-c4ccc(C#N)cn4)ncc3C2)ccc2c1COC2=O [Example 21] | 449
Cc1c(CCN2CCc3nc(-c4ccc(F)c(C#N)c4)ncc3C2)ccc2c1COC2=O [Example 22] | 441
Cc1c(CCN2CCn3c(nn(-c4ccc(C#N)c(F)c4)c3=O)C2)ccc2c1COC2=O [Example 24, 2-fluoro-4-{7-[2-(4-methyl-1-oxo-1,3-dihydro-2-benzofuran-5-yl)ethyl]-3-oxo-5,6,7,8-tetrahydro[1,2,4]triazolo[4,3-a]pyrazin-2(3H)-yl}benzonitrile] | 177
Cc1c(CCN2CCc3nc(-c4ccc(C#N)c(F)c4)ncc3C2)ccc2c1COC2=O [Example 27] | 70.2
Cc1c(CCN2CC[C@H]3[C@@H](C2)OC(=O)N3Cc2ccc3c(c2C)COC3=O)ccc2c1COC2=O [Example 28] | 113
Cc1c(CCN2CC[C@@H]3[C@@H](C2)OC(=O)N3Cc2ccc3c(c2C)COC3=O)ccc2c1COC2=O [Example 29] | 201
CC1=C(N2CC3=C(CCN(C[C@H](O)c4ccc5c(c4C)COC5=O)CC3)C2=O)COC1=O [Example 31, (R)-6-(2-Hydroxy-2-(4-methyl-1-oxo-1,3-dihydroisobenzofuran-5-yl)ethyl)-2-(4-methyl-5-oxo-2,5-dihydrofuran-3-yl)-2,3,5,6,7,8-hexahydropyrrolo[3,4-d]azepin-1(4H)-one] | 64

Results, then the compound that gave them:

IC50 [nM] | SMILES
74 | O=C1OCc2cc(CCN3CCc4nc(-c5ccc(-n6cnnn6)cc5)ncc4C3)ccc21 [Example 6, 6-[2-(1-oxo-1,3-dihydro-2-benzofuran-5-yl)ethyl]-2-[4-(1H-tetrazol-1-34)phenyl]-5,6,7,8-tetrahydropyrido[4,3-d]pyrimidine-1,6-diium]
168 | Cc1c(CCN2CCc3nc(-c4ccc(-n5cnnn5)cc4)ncc3C2)ccc2c1COC2=O [Example 7, 6-[2-(4-methyl-1-oxo-1,3-dihydro-2-benzofuran-5-yl)ethyl]-2-[4-(1H-tetrazol-1-yl)phenyl]-5,6,7,8-tetrahydropyrido[4,3-d]pyrimidine-1,6-diium]
85 | COc1cc(-c2nnc3n2CCN(CCc2ccc4c(c2C)COC4=O)C3)ccc1C#N [Example 14, 2-methoxy-4-{7-[2-(4-methyl-1-oxo-1,3-dihydro-2-benzofuran-5-yl)ethyl]-5,6,7,8-tetrahydro[1,2,4]triazolo[4,3-a]pyrazin-3-yl}benzonitrile]
89 | Cc1c(CCN2CCn3nc(-c4ccc5c(c4)COC5=O)nc3C2)ccc2c1COC2=O [Example 16, 4-methyl-5-{2-[2-(1-oxo-1,3-dihydro-2-benzofuran-5-yl)-5,6-dihydro[1,2,4]triazolo[1,5-a]pyrazin-7(8H)-yl]ethyl}-2-benzofuran-1(3H)-one]
192 | O=C1OCCc2cc(CCN3CCn4cc(-c5ccc6c(c5)COC6=O)nc4C3)ccc21 [Example 20, 6-{2-[2-(1-oxo-1,3-dihydro-2-benzofuran-5-yl)-5,6-dihydroimidazo[1,2-a]pyrazin-7(8H)-yl]ethyl}-3,4-dihydro-1H-isochromen-1-one]
208 | COc1ccc(-c2ncc3c(n2)CCN(CCc2ccc4c(c2C)COC4=O)C3)cc1C#N [Example 23]
92.8 | Cc1c(CCN2CCn3c(nn(-c4ccc5c(c4)COC5=O)c3=O)C2)ccc2c1COC2=O [Example 25, 7-[2-(4-methyl-1-oxo-1,3-dihydro-2-benzofuran-5-yl)ethyl]-2-(1-oxo-1,3-dihydro-2-benzofuran-5-yl)-5,6,7,8-tetrahydro[1,2,4]triazolo[4,3-a]pyrazin-3(2H)-one]
314 | Cc1c(CCN2CCc3nc(-c4ccc(C#N)cc4F)ncc3C2)ccc2c1COC2=O [Example 26]
27.5 | Cc1c(CCN2CCc3c(cnn3-c3ccc(C#N)c(F)c3)C2)ccc2c1COC2=O [Example 30, 2-fluoro-4-(5-(2-(4-methyl-1-oxo-1,3-dihydroisobenzofuran-5-yl)ethyl)-4,5,6,7-tetrahydro-1H-pyrazolo[4,3-c]pyridin-1-yl)benzonitrile]
